Earlier results as cited in US20070275382A1, “Biomarkers for the Efficacy of Somatostatin Analogue Treatment” (priority 2003, published 2007).
Like-named read-outs stand apart in the source and are kept apart here.

Tests used:
[1] = molecular target: hSST-2 (Homo sapiens, UniProt P30874); settings: background statement, cited from earlier work
[2] = molecular target: hSST-3 (Homo sapiens, UniProt P32745); settings: background statement; cited from earlier work
Chain of hSST-3 (P32745 whole entry): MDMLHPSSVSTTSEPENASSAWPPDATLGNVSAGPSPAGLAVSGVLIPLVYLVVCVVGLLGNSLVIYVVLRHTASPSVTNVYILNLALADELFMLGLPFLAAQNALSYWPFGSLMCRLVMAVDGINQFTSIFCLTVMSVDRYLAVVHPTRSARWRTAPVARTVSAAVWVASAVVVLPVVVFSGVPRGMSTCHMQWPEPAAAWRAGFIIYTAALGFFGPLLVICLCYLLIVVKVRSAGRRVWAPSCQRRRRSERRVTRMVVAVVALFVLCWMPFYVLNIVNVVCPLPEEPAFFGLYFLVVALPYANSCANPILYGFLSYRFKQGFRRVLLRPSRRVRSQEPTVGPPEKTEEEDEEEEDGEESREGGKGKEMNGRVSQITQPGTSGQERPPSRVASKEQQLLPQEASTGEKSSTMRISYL

Chain of hSST-2 (P30874 whole entry): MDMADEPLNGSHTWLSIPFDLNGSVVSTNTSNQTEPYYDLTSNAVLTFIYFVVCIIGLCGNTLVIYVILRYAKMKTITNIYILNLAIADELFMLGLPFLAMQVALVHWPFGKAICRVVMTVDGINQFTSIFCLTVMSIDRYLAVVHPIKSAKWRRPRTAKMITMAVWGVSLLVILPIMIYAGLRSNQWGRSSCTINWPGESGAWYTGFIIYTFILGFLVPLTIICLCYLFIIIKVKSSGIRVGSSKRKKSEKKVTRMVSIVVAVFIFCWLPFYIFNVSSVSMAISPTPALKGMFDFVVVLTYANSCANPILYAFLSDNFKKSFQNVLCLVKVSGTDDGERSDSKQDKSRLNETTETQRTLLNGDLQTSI

CC(C)[C@@H]1NC(=O)[C@H](CCCCN)NC(=O)[C@@H](Cc2c[nH]c3ccccc23)NC(=O)[C@H](Cc2ccc(O)cc2)NC(=O)[C@@H](NC(=O)[C@H](N)Cc2ccc3ccccc3c2)CSSC[C@@H](C(=O)N[C@H](C(N)=O)[C@@H](C)O)NC1=O [lanreotide]
affinity/binding to somatostatin receptor subtype 2 (SSTR2) [1]: selective high affinity

C[C@@H](O)[C@@H]1NC(=O)[C@H](CCCCN)NC(=O)[C@@H](Cc2c[nH]c3ccccc23)NC(=O)[C@H](Cc2ccccc2)NC(=O)[C@@H](NC(=O)[C@H](N)Cc2ccccc2)CSSC[C@@H](C(=O)N[C@H](CO)[C@@H](C)O)NC1=O [octreotide]
binding to SSTR3 [2]: to some extent
affinity/binding to somatostatin receptor subtype 2 (SSTR2) [1]: selective high affinity
affinity/binding to somatostatin receptor subtype 2 (SSTR2) ([1]; listed as Sandostatin®): binds mainly to SSTR2
